By IC50 is commonly meant the concentration that inhibits the measured activity by half.

For test [1], the system named is T. cruzi Arequipa strain epimastigotes. As to the kind of experiment: Screening against extracellular epimastigotes, Arequipa strain (resazurin). As to conditions: for IC50: Trypanosoma cruzi, epimastigotes, 48 h treatment + 24 h resazurin, mean of three ± SD, read-out: Activity IC50 T. cruzi Arequipa Strain E; for Selectivity Index T. cruzi Arequipa Strain E: IC50 Vero cells/IC50 epimastigotes. Format: cell-based, Trypanosoma cruzi. The protocol:
(§1) Three different T. cruzi […] strains—MHOM/Pe/2011/Arequipa, discrete typing unit (DTU) V [26]; IRHOD/CO/2008/SN3, DTU I [27]; TINF/CH/1956/Tulahuen, DTU VI [26]—were grown at 28 °C in Gibco® RPMI 1640 Medium supplemented as previously reported, and used for in vitro screening.
(§2) Trypanocidal activity against epimastigotes was tested as previously reported. In brief, 5 × 10^5 mL^−1 epimastigotes culture medium were treated by adding the compounds in serial dilutions from 100 to 0.2 µM in 96-well plates (200 µL·well^−1) for 48 h. BZN and untreated growth control were also included in triplicate. Later, 20 μL of resazurin sodium salt (Sigma-Aldrich, St. Louis, MO, USA) was added, and the plates were incubated for another 24 h. Finally, the absorbance of the wells was measured at 570/600 nm and related to the control. The trypanocidal activity was expressed as the IC50 (inhibitory concentration 50) value using GraphPad Prism 6 software.
Background: Resazurin is reduced to fluorescent resorufin, in cell work by metabolically active cells.

For test [2], the system named is T. cruzi Tulahuen strain epimastigotes. Description: Screening against extracellular epimastigotes, Tulahuen strain (resazurin). Format: cell-based, Trypanosoma cruzi. The note with it: for IC50: Trypanosoma cruzi, TULAHUEN, epimastigotes, 48 h treatment + 24 h resazurin, mean of three ± SD, read-out: Activity IC50 T. cruzi Tulahuen Strain E; for Selectivity Index T. cruzi Tulahuen Strain E: IC50 Vero cells/IC50 epimastigotes. As for the experimental part: as §1, §2

Test [3] concerns T. cruzi SN3 strain epimastigotes. As to the kind of experiment: Screening against extracellular epimastigotes, SN3 strain (resazurin). The format is cell-based, Trypanosoma cruzi. As to conditions: for IC50: Trypanosoma cruzi, epimastigotes, 48 h treatment + 24 h resazurin, mean of three ± SD, read-out: Activity IC50 T. cruzi SN3 Strain E; for Selectivity Index T. cruzi SN3 Strain E: IC50 Vero cells/IC50 epimastigotes. As for the experimental part:
as §1, §2

The next test concerns Vero cells. As to the kind of experiment: Cytotoxicity test on mammalian Vero cells (resazurin). The note with it: Chlorocebus sabaeus, 48 h treatment + 24 h resazurin, mean of three ± SD, read-out: Toxicity IC50 Vero Cell. Format: cell-based. The protocol:
Cytotoxicity against mammalian Vero cells (EACC No. 84113001) was tested as previously reported. In brief, 1.25 × 10^4 Vero cells·mL^−1, cultured at 37 °C, were treated by adding the compounds in serial dilutions from 400 to 1 µM in 96-well plates (200 µL·well^−1) for 48 h. BZN and untreated controls were also included in triplicate. Later, 20 μL of resazurin sodium salt (Sigma-Aldrich) was added, and the plates were incubated for another 24 h. Finally, cell viability was determined following the same procedure as described to assess the trypanocidal activity in the epimastigotes.

Test [4] concerns T. cruzi Arequipa strain trypomastigotes. Description: Screening against bloodstream trypomastigotes, Arequipa strain (resazurin). The format is cell-based, Trypanosoma cruzi.
Test [5] has as its system T. cruzi Arequipa strain amastigotes. Description: Screening against intracellular amastigotes in Vero cells, Arequipa strain (Giemsa counting). Format: cell-based, Trypanosoma cruzi. The protocol:
(§3) TINF/CH/1956/Tulahuen, DTU VI [26]—were grown at 28 °C in Gibco® RPMI 1640 Medium supplemented as previously reported, and used for in vitro screening. Trypanocidal activity against amastigotes was tested as previously reported. In brief, bloodstream trypomastigotes (BTs), obtained by cardiac puncture from infected BALB/c mice, were used to infect 1 × 10^4 Vero cells·well^−1 in 24-well plates with rounded coverslips at a multiplicity of infection (MOI) ratio of 10:1. After 24 h of infection, non-internalized trypomastigotes were washed and the infected cells were treated by adding the compounds in serial dilutions from 50 to 0.5 µM in […] for 72 h. BZN and untreated growth controls were also included in triplicate. Later, the number of amastigotes and infected cells were determined in Giemsa stained preparations by analysing 500 host cells randomly distributed in microscopic fields. The trypanocidal activity was expressed as the IC50 using GraphPad Prism 6 software (version 6.07).

For test [6], the system named is T. cruzi Tulahuen strain amastigotes. As to the kind of experiment: Screening against intracellular amastigotes in Vero cells, Tulahuen strain (Giemsa counting). Format: cell-based, Trypanosoma cruzi. The protocol:
as §3

Test [7] relates to T. cruzi Tulahuen strain trypomastigotes. As to the kind of experiment: Screening against bloodstream trypomastigotes, Tulahuen strain (resazurin). Format: cell-based, Trypanosoma cruzi.
Setting [8] is: IC50 Vero cells/IC50 trypomastigotes.
Setting [9] is: IC50 Vero cells/IC50 amastigotes.

SMILES strings stand for the structures. Structures can show the parent of a compound that is named as a salt.

As to `c1ccc(CNCCN(CCNCc2ccccn2)Cc2ccc3ccccc3c2)nc1` [Compound 1], the IC50 was determined as 28.3 ± 2.4 µM in test [1], 26 ± 2.7 µM in test [2] and 27.1 ± 2.1 µM in test [3]. In addition, the CC50 in the test on Vero cells was determined as 58.1 ± 6 µM.
As to `c1cncc(CNCCN(CCNCc2cccnc2)Cc2ccc3ccccc3c2)c1` [Compound 2], the “Selectivity Index T. cruzi Arequipa Strain E” value in test [1] was found to be 13.5. In addition, the 50% inhibitory concentration (IC50) in test [1] is 2.9 ± 0.3 µM; in test [2], 15.8 ± 1.4 µM; in test [3] it was 5.7 ± 0.5 µM; in test [4] (Trypanosoma cruzi, trypomastigotes, 24 h + 4 h resazurin, mean of three ± SD), 4.8 ± 0.5 µM; in test [5] (Trypanosoma cruzi, amastigotes in Vero cells, 72 h, mean of three ± SD) it was 6.2 ± 0.6 µM. In test [2], the “Selectivity Index T. cruzi Tulahuen Strain E” value was determined as 2.4. Also, the “Selectivity Index T. cruzi SN3 Strain E” value in test [3] worked out at 6.7. In addition, in test [4] (setting [8]), the “Selectivity Index T. cruzi Arequipa Strain T” value is recorded as 8.0. Further, in test [5] (setting [9]), the “Selectivity Index T. cruzi Arequipa Strain A” value turned out to be 6.2. In the test on Vero cells, the CC50 was determined as 38.5 ± 4.1 µM.
Regarding `c1ccc2cc(CN(CCNCc3ccncc3)CCNCc3ccncc3)ccc2c1` [Compound 3], the values for the IC50 in test [1], in test [2] and in test [3] were 18.7 ± 1.6 µM, 19.2 ± 1.7 µM and 21.8 ± 1.9 µM, respectively. For the same compound, in the test with Vero cells, the CC50 is 25.8 ± 2.7 µM.
In the same order, the values of `c1ccc2cc(CN(CCNCc3ccnc4ccccc34)CCNCc3ccnc4ccccc34)ccc2c1` [Compound 4, 1,7-Bis(4-quinolylmethyl)-4-(2-naphthylmethyl)-1,4,7-triazaheptane Pentahydrochloride] are 25.2 ± 2.7 µM, 22.6 ± 3.3 µM, 11 ± 1 µM and 5.3 ± 0.4 µM.
On the same counts, the results for `O=C(NCCN(CCNC(=O)c1ccccn1)Cc1ccc2ccccc2c1)c1ccccn1` [Compound 6] are 12 ± 1.1 µM, 16.1 ± 1.7 µM, 10 ± 1.2 µM and 63.2 ± 5.7 µM.
On the same counts, the results for `CN(C)c1cccc2c(S(=O)(=O)N(CCNCc3ccccn3)CCNCc3ccccn3)cccc12` [Compound 7] are 11.5 ± 1.1 µM, 12.1 ± 1.1 µM, 10.4 ± 1.1 µM and 41.3 ± 3.7 µM.
As to `CN(C)c1cccc2c(S(=O)(=O)N(CCNCc3cccnc3)CCNCc3cccnc3)cccc12` [Compound 8], the “Selectivity Index T. cruzi Arequipa Strain E” value in test [1] amounted to 2.8. The IC50 is 48.1 ± 3.9 µM in test [1]; 10 ± 1.1 µM in test [2]; 36.4 ± 3.4 µM in test [3]; 17 ± 1.5 µM in test [6] (Trypanosoma cruzi, TULAHUEN, amastigotes in Vero cells, 72 h, mean of three ± SD); 12.2 ± 1.2 µM in test [7] (Trypanosoma cruzi, TULAHUEN, trypomastigotes, 24 h + 4 h resazurin, mean of three ± SD). Besides, the “Selectivity Index T. cruzi Tulahuen Strain E” value in test [2] turned out to be 13.7. Besides, the “Selectivity Index T. cruzi SN3 Strain E” value in test [3] is 3.7. In test [6] (setting [9]), the “Selectivity Index T. cruzi Tulahuen Strain A” value is 8.0. Also, in the test with Vero cells, the CC50 was found to be 136 ± 14.8 µM. In test [7] (setting [8]), the “Selectivity Index T. cruzi Tulahuen Strain T” value was found to be 11.2.
For the compound `CN(C)c1cccc2c(S(=O)(=O)N(CCNC(=O)c3ccccn3)CCNC(=O)c3ccccn3)cccc12` [Compound 9], the IC50 in test [1] was found to be 12.4 ± 1.2 µM; in test [2], 39.3 ± 4.2 µM; in test [3], 59.6 ± 6.2 µM. The CC50 in the test with Vero cells was found to be 49.3 ± 5 µM.
In the same order, the values of `O=S(=O)(c1cccc2ccccc12)N(CCNCc1ccccn1)CCNCc1ccccn1` [Compound 10] are 15.2 ± 1.8 µM, 12.9 ± 1.8 µM, 14.3 ± 1.8 µM and 14.9 ± 1.3 µM.
On the same counts, the results for `CN(CCNCc1ccccn1)CCNCc1ccccn1` [Compound 11] are 12.8 ± 1.7 µM, 30 ± 2.7 µM, 21.4 ± 2 µM and 23.3 ± 2.1 µM.
In the same order, the values of `CN(CCNCc1ccncc1)CCNCc1ccncc1` [Compound 12] are 104 ± 12.8 µM, 95.2 ± 8.4 µM, 87.5 ± 9 µM and 188 ± 20.4 µM.
In the case of `O=S(=O)(c1cccc2cccnc12)N(CCNCc1ccccn1)CCNCc1ccccn1` [Compound 13], the IC50 is 12.7 ± 1.4 µM in test [1], 21 ± 1.8 µM in test [2] and 5.5 ± 4.9 µM in test [3]. Besides, the CC50 with Vero cells came to 28.3 ± 2.4 µM.
With `c1cc2nc(c1)CNCCN(CCNCc1ccc3[nH]ncc3c1)CCNC2` [Compound 14], the values for the IC50 in test [1], in test [2] and in test [3] were 18.3 ± 1.4 µM, 22.4 ± 2.1 µM and 25.8 ± 2.7 µM, respectively. Also, in the test with Vero cells, the CC50 turned out to be 60.3 ± 7 µM.
In the same order, the values of `c1cc(CNCCN2CCNCc3cccc(n3)CNCC2)nc(CNCCN2CCNCc3cccc(n3)CNCC2)c1` [Compound 16] are 102 ± 9.8 µM, 129 ± 14.7 µM, 155 ± 14.9 µM and 136 ± 14.7 µM.
